In patent US20060067924A1, “Probiotic bacteria and methods” (priority 2003, published 2006):
Entries after “also recorded” stand apart in the source; their conditions may differ.

Experiments:
[1] = test system: cecum flora; assay: 16S rDNA clone library analysis of the cecum flora, monensin treatment; type: in vivo, chicken; conditions: 28 d
[2] = test system: Lachnospira multiparus-like organisms; conditions: monensin supplementation; cited from earlier work
[3] = test system: bacterial community of the chicken ileum; assay: T-RFLP analysis (HaeIII) of amplified 16S rDNA from the ileum of chickens fed different diets; type: in vivo; conditions: for main bacterial composition present in TRFLP peaks in ileum: names in order of relative abundance of peaks; for Clostridiales, % peak areas / Lactobacillaceae, % peak areas: T-RFLP
Experimental: A comparative study of bacterial community of the chicken ileum was carried out using 16S rDNA gene analysis. The intestinal microbiota is part of a complex ecosystem. This study examined the effect of the growth promoting antibiotic, virginiamycin, and other commercial diets on the distribution and community structure of intestinal bacterial flora. Bacterial communities in the intestines of chickens were compared using terminal restriction fragment length polymorphism (T-RFLP) analysis targeting the 16S ribosomal DNA combining with 16S rDNA cloning library. The chickens were fed 4 different diets including a commercial corn-soy diet, corn-soy plus growth promotant diet, corn-soy plus monensin, and a wheat diet. A group was also administrated a probiotic at 1 day age and fed a corn-soy diet. After feeding of the birds with the experimental diets, the differences in the bacterial community structures in the ileum were detected in the form of different profiles of terminal restriction fragments (T-RFs). Some of the T-RFs were commonly distributed, i.e., they were found in all samples, while others varied in distribution and correlated with specific diets. Significant differences were found between the control group (corn-soy diet) and the experimental groups by pairwise-analyzing the T-RFs=profiles.
The bacterial populations are identified using genetic analysis of the 16S RNA gene by GeneScan-Terminal Restriction Fragment Length Polymorphism (T-RFLP) using 16S universal primers and cloning and DNA sequencing of 16S PCR products. GeneScan T-RFLP requires the following steps: labeling the PCR product by using labeled primers; digesting the PCR product with restriction enzymes; separating fragments on gel; and detecting terminal fragments. The sizes of terminal fragments can be calculated based on DNA sequence analysis.
In some experiments, the PCR products were loaded onto a gel from which bands were cut and eluted in 35 μl of sterile filtered distilled water using a QIAquick gel extraction kit (Qiagen, Chatsworth, Calif.). The concentrations of the fluorescently labeled PCR products were measured on a spectrophotometer (DU Series 500, Beckman, Fullerton, Calif.). About 100 ng of purified PCR products was digested in a 10 μl volume for 4 hours at 37 C with 10 U of HaeIII (isoschizomer BsuRI; Fermentas, MBI). Restriction digests were desalted with the QIAquick Nucleotide Removal Kit (Qiagen). The fluorescently labeled terminal restriction fragments (T-RFs) were analyzed by electrophoresis on an automatic sequence analyzer (ABI PRISM 310 DNA Sequencer; PE Biosystems, Foster City, Calif.) in GeneScan mode. Aliquots (2 ul) of T-RFs were mixed with 2 μl of deionized formamide, 0.5 μl of DNA fragment length size standard GS-500 (PE Biosystems). The T-RF mixture was denatured at 94° C. for 5 min and immediately chilled on ice prior to electrophoresis. After electrophoresis, the lengths of fluorescently labeled T-RFs were determined by comparison with internal standards by using GeneScan software (ABI). For each sample, peaks over a threshold of 50 units above background fluorescence were analyzed by manually aligning fragments to the size standard. To avoid detection of primers and uncertainties of size determination, terminal fragments smaller than 35 bp and larger than 525 bp were excluded from the analysis. Reproducibility of patterns was confirmed for repeated T-RFLP analysis of 16S gene amplification using the same DNA extracts from pooled samples.
The information index (Shannon and Weaver (1963) “The Mathematical Theory of Communication,” p. 117, University of Illinois Press, Urbana, Ill.) was used to initially evaluate the diversity of the microbial communities. [formula] Where n is possible categories in a data set and that their proportions are pi, . . . , pn. The H values are the measure of diversity for this system. […]

[4] = test system: bacterial flora of the chicken ileum; assay: 16S rDNA clone library analysis of the ileal bacterial community of chickens fed diets with feed additives; type: in vivo
[5] = pigs, 50 ppm, compared to controls; cited from earlier work
[6] = ileum, 7 days of age, 16S rDNA clone library
[7] = ileum, 28 days of age, 16S rDNA clone library
[8] = vs control fed the same feed without the antibiotic

Compound: CC[C@@]1([C@@H]2O[C@@H]([C@H]3O[C@@](O)(CO)[C@H](C)C[C@@H]3C)C[C@@H]2C)CC[C@H]([C@]2(C)CC[C@]3(C[C@H](O)[C@@H](C)[C@@H]([C@@H](C)[C@@H](OC)[C@H](C)C(=O)O)O3)O2)O1 [Monensin, monensin]
- cecum flora: Actinobacterium [1]: 43%
- cecum flora: Bacteroides [1]: 1%
- cecum flora: Clostridium spp. [1]: 27%
- cecum flora: Eubacterium [1]: 12%
- cecum flora: Lactobacillus spp. [1]: 6%
- cecum flora: Ruminococcus [1]: 10%
- decrease of relative numbers of Lachnospira multiparus-like organisms [2]: about 2 fold
- main bacterial composition present in TRFLP peaks in ileum ([3]; 3 day): Enterococcus sp; also recorded: E. coli
- main bacterial composition present in TRFLP peaks in ileum ([3]; 7 day): C. irregularis; also recorded: C. lituseburense; also recorded: L. acidophilus
- main bacterial composition present in TRFLP peaks in ileum ([3]; 14 day): C. lituseburense; also recorded: C. irregularis; also recorded: Clostridium sp; also recorded: L. crispatus
- main bacterial composition present in TRFLP peaks in ileum ([3]; 21 day): C. irregularis; also recorded: C. lituseburense; also recorded: L. crispatus
- main bacterial composition present in TRFLP peaks in ileum ([3]; 28 day): C. irregularis; also recorded: L. crispatus; also recorded: L. reuteri
- main bacterial composition present in TRFLP peaks in ileum ([3]; 49 day): C. lituseburense; also recorded: L. crispatus
- inhibition of C. irregularis ([3]; chicken ileum): not inhibited
- Clostridiales, % peak areas ([3]; ileum, 7 days of age): 92.89%
- Lactobacillaceae, % peak areas ([3]; ileum, 7 days of age): 7.1%
- Clostridiales, % peak areas ([3]; ileum, 28 days of age): 73.2%
- Lactobacillaceae, % peak areas ([3]; ileum, 28 days of age): 27.2%
- relative peak areas of Lactobacillus ([3]; ileum, whole group (control 73.22%)): 19.25%
- ileum flora: Clostridium spp. ([4]; 3 d): 1 [17] %
- ileum flora: L. crispatus ([4]; 3 d): 1 [4] %
- ileum flora: L. salivarius ([4]; 3 d): 1%
- ileum: Clostridiaceae ([4]; 3 d): 2 [17] %
- ileum: Enterococcus ([4]; 3 d): 9 [3] %
- ileum: Lactobacillus spp. ([4]; 3 d): 3 [60] %
- ileum: α-Proteobacteria ([4]; 3 d): 1 [1] %
- ileum: β-Proteobacteria ([4]; 3 d): 3 [5] %
- ileum: δ-Probeobacteria ([4]; 3 d): 82 [2] %
- ileum flora: C. irregularis ([4]; 7 d): 45%
- ileum flora: C. lituseburense ([4]; 7 d): 24%
- ileum flora: Clostridium spp. ([4]; 7 d): 13 [1] %
- ileum flora: L. acidophilus ([4]; 7 d): 4 [57] %
- ileum flora: L. crispatus ([4]; 7 d): 4 [1] %
- ileum flora: L. reuteri ([4]; 7 d): 3%
- ileum: Clostridiaceae ([4]; 7 d): 84 [1] %
- ileum: Enterococcus ([4]; 7 d): 3 [16] %
- ileum: Lactobacillus spp. ([4]; 7 d): 11 [64] %
- ileum flora: C. lituseburense ([4]; 14 d): 31%
- ileum flora: L. crispatus ([4]; 14 d): 17 [8] %
- ileum: Bifidobacter ([4]; 14 d): 2%
- ileum: Clostridiaceae ([4]; 14 d): 44 [7] %
- ileum: Enterococcus ([4]; 14 d): 33 [13] %
- ileum: Lactobacillus spp. ([4]; 14 d): 21 [64] %
- ileum flora: C. irregularis ([4]; 21 d): 19%
- ileum flora: C. lituseburense ([4]; 21 d): 22%
- ileum flora: L. crispatus ([4]; 21 d): 19 [3] %
- ileum flora: L. salivarius ([4]; 21 d): 7 [5] %
- ileum: Bacteroides ([4]; 21 d): 2 [3] %
- ileum: Clostridiaceae ([4]; 21 d): 47 [9] %
- ileum: Enterococcus ([4]; 21 d): 11 [3] %
- ileum: Lactobacillus spp. ([4]; 21 d): 27 [66] %
- ileum flora: C. irregularis ([4]; 28 d): 53%
- ileum flora: C. lituseburense ([4]; 28 d): 7%
- ileum flora: Clostridium spp. ([4]; 28 d): 1 [6] %
- ileum flora: L. crispatus ([4]; 28 d): 17 [75] %
- ileum flora: L. reuteri ([4]; 28 d): 11 [7] %
- ileum flora: L. salivarius ([4]; 28 d): 2 [2] %
- ileum: Bacillus ([4]; 28 d): 1%
- ileum: Clostridiaceae ([4]; 28 d): 62 [7] %
- ileum: Enterococcus ([4]; 28 d): 1 [3] %
- ileum: Lactobacillus spp. ([4]; 28 d): 32 [88] %
- ileum: Streptococcus ([4]; 28 d): 1 [1] %
- ileum flora: C. irregularis ([4]; 49 d): 3%
- ileum flora: C. lituseburense ([4]; 49 d): 42%
- ileum flora: Clostridium spp. ([4]; 49 d): 1 [19] %
- ileum flora: L. aviaries ([4]; 49 d): 16%
- ileum flora: L. crispatus ([4]; 49 d): 20 [36] %
- ileum flora: L. reuteri ([4]; 49 d): 5 [1] %
- ileum flora: L. salivarius ([4]; 49 d): 3 [28] %
- ileum: Bacillus ([4]; 49 d): 5 [4] %
- ileum: Bacteroides ([4]; 49 d): 1 [1] %
- ileum: Clostridiaceae ([4]; 49 d): 46 [19] %
- ileum: Enterococcus ([4]; 49 d): 5 [2] %
- ileum: Lactobacillus spp. ([4]; 49 d): 45 [70] %
- ileum: Streptococcus ([4]; 49 d): 5%
- Clostridiales, % of seq [4, 6]: 82.4%
- Enterococcus/Streptococcus, % of seq [4, 6]: 2.7%
- Lactobacillaceae, % of seq [4, 6]: 12.9%
- Proteobacteria α, % of seq [4, 6]: 1.35%
- Bacillaceae, % of seq [4, 7]: 1.05%
- Clostridiales, % of seq [4, 7]: 63.2%
- Enterococcus/Streptococcus, % of seq [4, 7]: 2.1%
- Lactobacillaceae, % of seq [4, 7]: 31.6%
- Proteobacteria α, % of seq [4, 7]: 2.1%
- clostridial sequences [4, 8]: increased
- overall numbers of Lactobacillus sequences [4, 8]: reduced

Compound: virginiamycin
- enhancement in feed conversion [5]: 7%
- improvement in growth rate [5]: 10%
- Lactobacillus species in the ileum vs controls ([4]; 28 and 49 days of age): significantly fewer
